Assay results: patent US4224199A, “Somatostatin analogs having a substituted tryptophyl residue in position eight” (priority 1978, dated 1980)

System: rat anterior pituitary cells
Experiment: in vitro inhibition of growth hormone release from dispersed rat anterior pituitary cells (radioimmunoassay)
Format: cell-based
Conditions: rat anterior pituitary cells 4 days in culture, incubated 5 hours at 37° C., potency from ED50 relative to somatostatin
Protocol: Meyers et al., Biochem. Biophys. Res. Commun., 74, 630(1977). In this method, the tetradecapeptides of this invention are shown to inhibit the release of radioimmunoassayable growth hormone in vitro from enzymatically dispersed rat anterior pituitary cells prepared as described by F. Labrie et al., Sixth Karolinska Symp. on Res. Meth. in Reprod. Endocrinol. (W. Dozfalusy, Ed.), pp 301-328(1973). Following four days in culture, the cells are washed and incubated for five hours at 37° C. in Dulbecco-modified Eagle's medium in the presence or absence of increasing concentrations of each tetradecapeptide analog. Growth hormone levels are determined by double antibody radioimmunoassay, method described by C. A. Birge et al., Endocrinol., 81, 195-204(1967), for rat growth hormone using the NIAMDD Rat GH RIA kit. The dose required for a 50% inhibition of growth hormone release (ED50) is calculated for each analog by the method of D. Rodbard, Endocrinol., 94, 1427-1437(1974). The potency of the tetradecapeptide analogs of this invention relative to somatostatin is illustrated in table I.

Molecule	Growth Hormone Release-Inhibiting Activity, Relative to Somatostatin [%]
C[C@H](N)C(=O)NCC(=O)N[C@H]1CSSC[C@@H](C(=O)O)NC(=O)[C@H](CO)NC(=O)[C@H]([C@@H](C)O)NC(=O)[C@H](Cc2ccccc2)NC(=O)[C@H]([C@@H](C)O)NC(=O)[C@H](CCCCN)NC(=O)[C@@H](Cc2c[nH]c3ccc(F)cc23)NC(=O)[C@H](Cc2ccccc2)NC(=O)[C@H](Cc2ccccc2)NC(=O)[C@H](CC(N)=O)NC(=O)[C@H](CCCCN)NC1=O [Example D-5-F-Trp, cyclic[3-14 disulfide] of L-alanyl-glycyl-L-cysteinyl-L-lysyl-L-asparaginyl-L-phenylalanyl-L-phenylalanyl-D-5-fluorotryptophyl-L-lysyl-L-threonyl-L-phenylalanyl-L-threonyl-L-seryl-L-cysteine]	2499
cyclic[3-14 disulfide] of L-alanyl-glycyl-L-cysteinyl-L-asparaginyl-L-lysyl-L-phenylalanyl-L-phenylalanyl-L-5-fluorotryptophyl-L-lysyl-L-threonyl-L-phenylalanyl-L-threonyl-L-seryl-L-cysteine [Example L-5-F-Trp]	476
